Results: PubChem BioAssay (NCI)
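1) Cells in 96-well plates. 2) Compound, 48 h, 5 concentrations. 3) Linear interpolation between surrounding doses. 4) Unreached endpoint = highest concentration. GI50 marks 50% less growth. TGI is the concentration that stops growth completely.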

Legend:
Assay in all cases: DTP human tumour cell line panel, 48 h
[1] = tested on: A549 NSCLC
[2] = tested on: HCT-116 colon
[3] = tested on: NCI-H226 lung
[4] = tested on: NCI/ADR-RES ovarian
[5] = tested on: OVCAR-3 ovarian
[6] = tested on: OVCAR-5 ovarian
[7] = tested on: SK-MEL-28 melanoma
[8] = tested on: SK-MEL-5 melanoma
[9] = tested on: SN12C renal
[10] = tested on: SNB-19 CNS

Row | Compound | GI50 [1] | TGI [1] | GI50 [2] | TGI [2] | GI50 [3] | TGI [3] | GI50 [4] | TGI [4] | GI50 [5] | TGI [5] | GI50 [6] | TGI [6] | GI50 [7] | TGI [7] | GI50 [8] | TGI [8] | GI50 [9] | TGI [9] | GI50 [10] | TGI [10]
1 | N#C/C(=C\c1ccc(Cl)cc1)n1nnc2cc(F)c(F)cc21 | 2.7 µM | 21.5 µM | 1.77 µM | 3.45 µM | 2.02 µM | 4.54 µM | 2.36 µM | 7.7 µM | 1.71 µM | 3.22 µM | 1.9 µM | 3.81 µM | 2.04 µM | 4.38 µM | 1.62 µM | 3.04 µM | 1.89 µM | 4.02 µM | 1.82 µM | 3.78 µM
2 | COc1ccc(/C(Cl)=C(\C=O)c2cc(OC)c(OC)c(OC)c2)cc1OC |  | > 100 µM |  | > 100 µM |  | 70.6 µM |  | 40.2 µM |  | > 100 µM |  | > 100 µM |  | > 100 µM |  | > 100 µM |  | > 100 µM |  | > 100 µM
3 | O=C1CN2CCC1C/C2=C\c1ccnc2c(Cl)cccc12 (stereo not given) | > 100 µM | > 100 µM | 45 µM | > 100 µM | 90.5 µM | > 100 µM | 39.2 µM | > 100 µM | > 100 µM | > 100 µM | > 100 µM | > 100 µM | > 100 µM | > 100 µM | 31 µM | > 100 µM | > 100 µM | > 100 µM | > 100 µM | > 100 µM
4 | O=C(c1cccs1)c1c(C(F)(F)F)n([O-])c2cc(C(F)(F)F)ccc2[n+]1=O | 0.242 µM | 0.69 µM | 0.0575 µM | 0.176 µM | 0.647 µM | 1.71 µM | 0.216 µM | 0.585 µM | 0.333 µM | 0.704 µM | 0.432 µM | 1.37 µM | 0.694 µM | 2.09 µM | 0.314 µM | 0.723 µM | 0.2 µM | 0.408 µM | 0.348 µM | 0.707 µM
5 | CCC[C@H](Nc1nc(-c2ccc(NC(=O)NCC)c(OC)c2)ncc1C)c1cccnc1 | 0.0378 µM | > 36.2 µM | 0.0349 µM | 10.5 µM | 0.0531 µM | 25.7 µM | 0.214 µM | 9.97 µM | 0.0221 µM | 0.0492 µM | 0.0579 µM | > 100 µM | 1.14 µM | > 61.6 µM | 0.0273 µM | 0.0912 µM | 0.0486 µM | 20.5 µM | 0.0441 µM | > 84.8 µM
6 | Cc1c(N(C(=O)c2cc(-c3cc(Cl)ccc3C(=O)N3Cc4ccccc4C[C@H]3CN3CCOCC3)n(C)c2C)c2ccc(O)cc2)cc(C#N)n1C | 27.6 µM | > 100 µM | 7.66 µM | > 100 µM | 14.1 µM | 44.4 µM | 50.6 µM | > 100 µM | 11 µM | > 100 µM | 44.9 µM | > 100 µM | 31.3 µM | > 100 µM | 14.6 µM | 36.9 µM | 19.5 µM | > 100 µM | 13.8 µM | > 100 µM
7 | COc1cc(-c2ccc(-[n+]3nc(-c4ccc([N+](=O)[O-])cc4)nn3-c3ccc([N+](=O)[O-])cc3)c(OC)c2)ccc1-[n+]1nc(-c2ccc([N+](=O)[O-])cc2)nn1-c1ccc([N+](=O)[O-])cc1 | 3.46 µM | 31.2 µM | 3.38 µM | > 31.6 µM | 12.1 µM | 45.7 µM | 26.9 µM | > 100 µM | 9.77 µM | 38.2 µM | 12.4 µM | 45.5 µM | 18 µM | 64.4 µM | 4.28 µM | 23.6 µM | 7.05 µM | 40.3 µM | 11.9 µM | 69.3 µM
8 | COc1cc(/C=C2\C[C@H]3[C@@H]4CC=C5C[C@@H](OC(C)=O)CC[C@]5(C)[C@H]4CC[C@]3(C)[C@H]2OC(C)=O)ccc1OCCCn1ccnc1 | 8.45 µM | 20.4 µM | 7.78 µM | 17.2 µM | 7.78 µM | 24.6 µM | 11.3 µM | 28.8 µM | 12.3 µM | 26.2 µM | 12.7 µM | 33.6 µM | 15.9 µM | > 50 µM | 7.25 µM | 15.4 µM | 8.84 µM | 21.9 µM | 21.3 µM | > 50 µM
9 | CCC[CH2][Sn]([CH2]CCC)([O]C(=O)c1cccc(F)c1F)[O][Sn]([CH2]CCC)([CH2]CCC)[O]C(=O)c1cccc(F)c1F | 1.78 µM | 3.44 µM | 0.257 µM | 0.848 µM | 0.317 µM | 0.851 µM | 0.3 µM | 1.32 µM | 0.493 µM | 1.64 µM | 1.47 µM | 2.9 µM | 0.154 µM | 0.369 µM | 0.52 µM | 1.69 µM | 0.293 µM | 1.15 µM | 0.573 µM | 1.7 µM
